In US11944661B2, “Pharmaceutical composition containing extract of leaves of Vaccinium bracteatum Thunb. for prevention or treatment of stress disease and depression” (JEONNAM BIOINDUSTRY FOUNDATION, priority 2017, dated 2024):
Where a name gives a salt, the structure may show the parent alone. Read-outs that look alike come from different tables or passages of the source.

Columns and labels:
SH-SY5Y cells = experiment: Cytotoxicity of the pharmacological inhibitors alone, 24-hour incubation
Procedure: An experiment was carried out to find out the working signaling pathway responsible for the neuroprotective activity of the Vaccinium bracteatum Thunb. leaf extracts against corticosterone-induced neuronal damage. In this experiment, SH-SY5Y cells were pretreated for 1 hour with wortmanin, rapamycin, H89, and PD98059, which are respective pharmacological inhibitors of the PI3K (phosphoinositide 3-kinase), mTOR, PKA (protein kinase A), and MAPK/ERK kinase pathways and then incubated for 2 hours with the hot-water extracts of Vaccinium bracteatum Thunb. leaves (3 μg/ml). Thereafter, 24 hours of incubation with corticosterone (1 mM) was followed by measuring cell viability through MTT assay.
For use in the experiment, the inhibitors alone were assayed for cytotoxicity.

male ICR mice = experiment: Forced swimming test (FST) in normal mice after 1 or 6 days of oral administration; type: in vivo; conditions: comparative group, dose not given
Procedure: For use in assaying an antidepressant effect of the Vaccinium bracteatum Thunb. leaf extracts, male ICR mice, 6 weeks of age, were purchased from […], Korea. The animals were acclimated to a certain condition in an animal breeding room (temperature: 22±2° C., humidity: 50±5%, contrast: 12-hour light/12-hour dark cycle) for one week before use. Male ICR mice were orally administered the Vaccinium bracteatum Thunb. leaf extract the present invention while escitalopram oxalate was used as an antidepressant for a comparative group. Oral administration was conducted for 1 or 6 days according to the experiment. In a forced swimming test (FST), which is a pre-swim test on the day before the main test (post-swim), tap water of around 25° C. was poured into a cylindrical water tank (about 20 cm in diameter, 40 cm in height) to the height of 15 cm from the bottom, after which the mice were put thereinto and forced to swim for 15 minutes. Then, the mice were withdrawn from the water, wiped with a dry towel, and returned to the breeding box. After 1 or 6 days of drug administration, the main test (post-swim) was performed and video was taken with forced swimming for 6 minutes with the mice in the cylinder. In the recorded images for the five minutes exclusive of the first one minute, the animal behavior was classified into three types for analysis: the animals were floating in the water, showing a slight movement, with only a part of the upper body including the face exposed on the water face (immobility behavior); the animals were swimming around the cylinder in the horizontal direction while splashing the water with their forepaws and rear paws (swimming behavior); and the animals were making the fierce movement of pulling the paws out of the water, scrapping the wall (climbing behavior). Times for the three movements were measured.

corticosterone = experiment: Serum stress hormone corticosterone level (ELISA) in normal mice after six days of administration; type: in vivo; conditions: comparative group, dose not given
Procedure: After six days of drug administration to mice in a normal state, effects on the level of the stress hormone corticosterone in sera of the mice were measured using the Abnova ELISA kit according to the manufacturer's instruction.

[1] = test system: male ICR mice subjected to chronic restraint stress (CRS); experiment: Forced swimming test (FST) in chronic restraint stress (CRS) mice; type: in vivo; conditions: three weeks of CRS; 10 mg/kg p.o
Procedure: In a forced swimming test (FST), which is a pre-swim test on the day before the main test (post-swim), tap water of around 25° C. was poured into a cylindrical water tank (about 20 cm in diameter, 40 cm in height) to the height of 15 cm from the bottom, after which the mice were put thereinto and forced to swim for 15 minutes. Then, the mice were withdrawn from the water, wiped with a dry towel, and returned to the breeding box. After 1 or 6 days of drug administration, the main test (post-swim) was performed and video was taken with forced swimming for 6 minutes with the mice in the cylinder. In the recorded images for the five minutes exclusive of the first one minute, the animal behavior was classified into three types for analysis: the animals were floating in the water, showing a slight movement, with only a part of the upper body including the face exposed on the water face (immobility behavior); the animals were swimming around the cylinder in the horizontal direction while splashing the water with their forepaws and rear paws (swimming behavior); and the animals were making the fierce movement of pulling the paws out of the water, scrapping the wall (climbing behavior). Times for the three movements were measured. Male ICR mice were purchased and subjected to chronic restraint stress (CRS). In this regard, a constant restraint stress was given by immobilizing the mice for 6 hours per day (a.m. 11 to p.m.5) in an acrylic box 20 cm in height and 7 cm in diameter for three weeks. The hot-water extracts of Vaccinium bracteatum Thunb. leaves were orally administered at each dose to the mice daily 30 min before the stress was given at the same time. For the control, the same volume of saline was administered. As a comparative group, escitalopram oxalate, which is an antidepressant, was orally administered. Animal behavior tests were performed the next day after 3 weeks of restraint stress stimulation. The open field test (OFT) was followed by the forced swimming test (FST). […]

[2] = test system: male ICR mice subjected to chronic restraint stress (CRS); experiment: Open field test (OFT) in chronic restraint stress (CRS) mice; type: in vivo; conditions: three weeks of CRS; 5 minutes; positive control
Procedure: Male ICR mice were purchased and subjected to chronic restraint stress (CRS). In this regard, a constant restraint stress was given by immobilizing the mice for 6 hours per day (a.m. 11 to p.m.5) in an acrylic box 20 cm in height and 7 cm in diameter for three weeks. The hot-water extracts of Vaccinium bracteatum Thunb. leaves were orally administered at each dose to the mice daily 30 min before the stress was given at the same time. For the control, the same volume of saline was administered. As a comparative group, escitalopram oxalate, which is an antidepressant, was orally administered. Animal behavior tests were performed the next day after 3 weeks of restraint stress stimulation. The open field test (OFT) was followed by the forced swimming test (FST). After the FST evaluation, whole blood was collected from the mice which were then autopsied to excise the hippocampus and prefrontal cortex. These brain tissues were immediately stored at −70° C. until use in experiments. The open field test (OFT) is an experimental test used to assay locomotor activity levels of animals to determine the anti-anxiety and anti-depressive effects of drugs. An OFT box is an arena having the dimensions of 60 cm diameter×20 cm height with the bottom surface divided into 25 cells. […] In the OFT box, the number of cells which the animal voluntarily crossed for 5 minutes was counted. […]

For O=S(=O)(NCCNC/C=C/c1ccc(Br)cc1)c1cccc2cnccc12 [H89], the “cytotoxicity of inhibitor alone” value (SH-SY5Y cells) was “No cytotoxicity”.

COc1cccc(-c2cc(=O)c3ccccc3o2)c1N [PD98059] was tested, and the “cytotoxicity of inhibitor alone” value (SH-SY5Y cells) was “No cytotoxicity”.

With CN(C)CCC[C@@]1(c2ccc(F)cc2)OCc2cc(C#N)ccc21 [escitalopram oxalate] the climbing time (male ICR mice; one-day administration) was 12.43 ± 3.47 s, the immobility time (male ICR mice; one-day administration) was 194.65 ± 11.55 s and the immobility time (male ICR mice; six-day administration) was 169.65 ± 7.15 s. The swimming time (male ICR mice; six-day administration) was 128.16 ± 6.65 s, the stress hormone corticosterone in sera (corticosterone) was 765 ± 97.5 ng/mL and the climbing time [1] was 105.23 ± 15.37 s. For the same molecule, the immobility time [1] was 154.74 ± 14.80 s, the swimming time [1] was 146.58 ± 14.84 s and the “number of crossing (locomotor activity)” value [2] was 182.73±5.60 crossings.

For CO[C@H]1C[C@@H]2CC[C@@H](C)[C@@](O)(O2)C(=O)C(=O)N2CCCC[C@H]2C(=O)O[C@H]([C@H](C)C[C@@H]2CC[C@@H](O)[C@H](OC)C2)CC(=O)[C@H](C)/C=C(\C)[C@@H](O)[C@@H](OC)C(=O)[C@H](C)C[C@H](C)/C=C/C=C/C=C/1C [rapamycin], the “cytotoxicity of inhibitor alone” value (SH-SY5Y cells) was “No cytotoxicity”.

For COC[C@H]1OC(=O)c2coc3c2[C@@]1(C)C1=C(C3=O)[C@@H]2CCC(=O)[C@@]2(C)C[C@H]1OC(C)=O [wortmanin], the “cytotoxicity of inhibitor alone” value (SH-SY5Y cells; 24-hour incubation, inhibitor alone) was “except for the PI3K inhibitor (wortmanin)”.
